Laboratory results as given in the METLIN SMRT retention time set (Domingo-Almenara et al. 2019).

Assay: gradient 5% acetonitrile 3 min, to 50% in 2 min, to 85% in 15 min, held 3 min, 100 µL/min
Conditions: column: Zorbax Extend-C18 2.1 x 50 mm; eluents: water / acetonitrile, 0.1% formic acid
How it was run: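 Retention times of pure standards were taken from adduct peaks that were selected by computer and manually inspected. Over 3 months, mixtures of ~100 molecules were run by HPLC–quadrupole time-of-flight mass spectrometry in positive and negative ionization mode. The Zorbax Extend-C18 column (2.1 × 50 mm, 1.8 μm) ran at 100 μL/min in water and acetonitrile, each containing 0.1% formic acid, with 40 μL dead volume and 900 μL dwell volume.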

Row | RP-LC retention time | Structure (SMILES)
1 | 1110 s | CCCNC(=O)CCc1nc2ccccc2n(CC(=O)Nc2ccc(OC)c(OC)c2)c1=O
2 | 668 s | Cn1nc(C(=O)Nc2ccccc2)c2c1CCN(C(=O)CCC(=O)N1CCOCC1)C2
3 | 781 s | CN1C(=O)CCc2cc(NS(=O)(=O)c3ccc(F)c(F)c3)ccc21
4 | 687 s | COc1ccc(Nc2c(-c3ccc(N(C)C)cc3)nc3cnccn23)cc1OC
5 | 644 s | Cc1ccc(-c2cc(C(=O)N3CCN(C)CC3)n(C)c2)cc1
6 | 1010 s | COc1ccc(C2CC(=O)N(c3ccc(C)c(Cl)c3)C(=O)C2)cc1
7 | 869 s | CCn1cc(-c2ccc(F)cc2)cc1C(=O)N1CCOCC1
8 | 671 s | CN1CCn2cc(S(=O)(=O)Nc3ccc(F)c(F)c3)cc2C1=O
9 | 679 s | O=c1[nH][nH]c2nnc(-c3c(-c4ccccc4)nn4ccccc34)cc12
10 | 718 s | CCOC(=O)N1CCN(c2ncc(C(=O)Nc3ccc(OCC)cc3)c(N)n2)CC1
11 | 583 s | CCc1nc2cc(N3CCCC(C(=O)NCCN4CCN(C)CC4)C3)cnc2nc1CC (configuration not stated)
12 | 694 s | Clc1ccc2nc(-c3ccc(N4CCOCC4)cc3)c(Nc3ccc4c(c3)OCCO4)n2c1
13 | 1020 s | Cc1ccc(Cl)cc1-n1ccnc(NC(=O)Nc2ccccc2)c1=O
14 | 701 s | Cc1ccn2c(NC(=O)c3c(F)cccc3Cl)c(-c3ccc(F)cc3)nc2c1
15 | 690 s | Cc1noc2nc(CCC(=O)NCc3ccccn3)nc(N3CC(C)CC(C)C3)c12 (configuration not stated)
16 | 1040 s | CC1CCN(S(=O)(=O)c2ccc(-c3nnc(C(=O)NCc4ccc(F)cc4)o3)cc2)CC1
17 | 736 s | CCC1(C(=O)Nc2ccc(C)cc2)CCCCC(=O)N1 (configuration not stated)
18 | 592 s | CCCCOCc1cc(CN2CCN(C)CC2)c(O)c2ncccc12
19 | 914 s | O=C(Cc1c[nH]c2ccccc12)N1CCC(c2noc(-c3ccccc3)n2)CC1

Row | RP-LC retention time | Structure (SMILES)
20 | 1140 s | Cc1cc(C(=O)NCc2ccc(F)cc2F)nc2cc(-c3cccs3)nn12
21 | 1010 s | CNC(=O)c1c(NC(=O)c2ccccc2Cl)sc2c1CCC2
22 | 1040 s | Cc1cccc(-c2noc(-c3nn(CC(=O)NC4CC4)c4ccccc34)n2)c1
23 | 665 s | CCOC(=O)c1nc(N2CCN(C(=O)c3ccco3)CC2)c2ccccc2n1
24 | 600 s | CCn1c(N2CCC(C(=O)N3CCC(N4CCCCC4)CC3)CC2)cc(=O)n(C)c1=O
25 | 539 s | Cc1cn2c(CCC(=O)NCCn3nc(-c4ccco4)ccc3=O)csc2n1
26 | 1020 s | Cc1cc(Cl)ccc1NC(=O)C1CCN(S(=O)(=O)c2c(C)nn(-c3ccccc3)c2C)CC1
27 | 685 s | CCSc1nnc(NC(=O)c2cc(=O)c(OCc3cccc(OC)c3)cn2C)s1
28 | 940 s | O=c1cc(-c2ccc(F)cc2)ncn1Cc1cccc(C(F)(F)F)c1
29 | 1080 s | Cc1ccc(NC(=O)N2CCc3nc(-c4ccccc4)ncc3C2)c(Cl)c1
30 | 762 s | Cc1ccc(N2CC(C(=O)Nc3ccc4c(c3)C(=O)N3CCCCC3CCO4)CC2=O)cc1 (configuration not stated)
31 | 556 s | Cc1noc([C@@H]2CN(C(=O)c3cscn3)C[C@H]2C(N)=O)n1
32 | 692 s | c1ccc(Cn2c(-c3ccc(OC[C@H](C4CCNCC4)n4c(-c5ccccc5)nc5ccccc54)cc3)nc3ccccc32)cc1
33 | 649 s | Cc1nnsc1C(=O)NCC(F)(F)F
34 | 693 s | CCN(CC)S(=O)(=O)c1ccc2c(c1)N(CC(=O)NCCc1ccco1)C(=O)C1CCCCN21 (configuration not stated)
35 | 672 s | Cc1ccccc1CNC(=O)Cn1c(=O)c2nnc(C)n2c2ncccc21
36 | 749 s | CC1CCN(S(=O)(=O)c2cccn(CC#N)c2=O)CC1
37 | 889 s | O=C(O)c1cc(-c2ccccn2)nc2ccc(Br)cc12
